From ChEMBL document CHEMBL1133992, “Hydrolase and sialyltransferase activities of trypanosoma cruzi trans-sialidase towards NeuAc-alpha-2,3-gal-Gal-beta-O-PNP” (Bioorg Med Chem Lett, 2001)
Activity calls are given as the source filed them. No cut-off for these calls is given here.

What was measured:
[1] = test system: Vibrio cholerae; test: Inhibitory activity against Vibrio cholerae sialidase at mM concentration, Not significant
[2] = test system: Trypanosoma cruzi; test: Km value for hydrolase activity of Trypanosoma cruzi trans-sialidase
[3] = test system: Trypanosoma cruzi; test: Km value for transferase activity of Trypanosoma cruzi trans-sialidase

CCCCCCCCOC1OC(CO)C(O)C(SC2(C(=O)O)CC(O)C(NC(C)=O)C([C@H](O)[C@H](O)CO)O2)C1O (stereo partly drawn)
inhibition [1]: inactive
Km [2]: > 5 mM
Km [3]: > 5 mM
